Test results reported in US20040010001A1, “Methods and compositions for modulating cell proliferation and cell death” (priority 1999, published 2004).
Read-outs that look alike come from different tables or passages of the source.

Legend:
[1] = system: rat lung metastasis cells, monolayers; assay: Drug effect in monolayers of rat lung metastasis cells (inhibition of bromodeoxyuridine incorporation); format: cell-based; settings: 96 h, read-out: Concentration producing 50% inhibition
[2] = system: Human prostate PC3 tumor cells; assay: aFGF/bFGF-induced resistance and reversal by suramin, sulforhodamine B assay; format: cell-based; settings: for Resistance, Folds, aFGF 0.3 ng/ml + bFGF 1 ng/ml / Resistance, Folds, aFGF 1 ng/ml + bFGF 3 ng/ml: no suramin, relative to control
Experimental: The experimental conditions are described briefly below. […] Cell number was measured using the sulforhodamine B assay which measures the total protein concentration. […] The FGF-induced resistance was dependent on the FGF concentrations, with a higher resistance at higher FGF concentrations.

[3] = system: rat lung metastases, histocultures; assay: Drug effect in histocultures of rat lung metastases (inhibition of 3H-thymidine incorporation); format: cell-based
[4] = system: rat primary tumor cells, monolayers; assay: Drug effect in monolayers of rat primary tumor cells (inhibition of bromodeoxyuridine incorporation); format: cell-based; settings: 96 h, read-out: Concentration producing 50% inhibition
[5] = system: rat lymph node metastases, histocultures; assay: Drug effect in histocultures of rat lymph node metastases (inhibition of 3H-thymidine incorporation); format: cell-based
[6] = system: human PC3-LN lung metastases
Experimental: Animal care was in accordance with the guidelines at the Ohio State University. Several human tumor models were used, including (a) lung metastases derived from intravenous injection of human PC3-LN tumor cells, (b) lung tumors derived from direct injection of human PC3 cells in lungs, and (c) subcutaneously implanted PC3 tumors. Four studies were performed. In all studies, drug treatment was administered intravenously via a tail vein, after the tumor was established. The first and second studies used the intravenous PC3-LN lung metastasis model. Briefly, human PC3-LN cells ([…] in 0.1 ml physiologic saline) were injected intravenously, via a tail vein, into immunodeficient mice. […] Treatment was given twice weekly for three weeks. […] Three days after completion of drug treatments, animals were euthanized and their lungs removed, fixed in Bouin's solution to visualize tumor nodules, and then processed for histologic evaluation. […] The lung surface area (counted as number of pixel) occupied by the tumor was calculated as a fraction of the total lung area, using Adobe PhotoShop. The number of tumor cells in residual tumors and the fraction of apoptotic cells in each tumor were also determined microscopically. Because apoptotic cells disappear over time, a second measure of the extent of apoptosis was the density of non-apoptotic cells in the residual tumors. This was determined by counting the number of non-apoptotic tumor cells in randomly selected microscopic fields at 400× magnification. […] In the case of combination therapy where fewer than 5 tumor nodules remained per animal, all residual cells (between 20 to 600 cells per animal) were counted.

[7] = system: normal rat intestinal epithelial cells (IEC6); assay: Protection of normal intestinal epithelial cells by aFGF/bFGF, BrdU incorporation; format: cell-based; settings: drug 24 hours
Experimental: These cells were derived from normal, noncancerous intestinal epithelium. […] Drug effect was measured as the reduction of bromodeoxyuridine incorporation in treated cells relative to untreated controls.

[8] = system: Human prostate PC3 tumor cells; assay: Intracellular drug accumulation with or without CM or r-bFGF; settings: unchanged with or without CM or r-bFGF; 1 nM paclitaxel, 50 nM doxorubicin, 500 nM 5-fluorouracil; 4 hours
[9] = system: human PC3 lung tumors; assay: Lung tumors established by direct injection of PC3 cells into the lungs of immunodeficient mice; format: in vivo; settings: doxorubicin three doses of 10 mg/kg, suramin three doses of 20 mg/kg, day 12
Experimental: Animal care was in accordance with the guidelines at the Ohio State University. Several human tumor models were used, including (a) lung metastases derived from intravenous injection of human PC3-LN tumor cells, (b) lung tumors derived from direct injection of human PC3 cells in lungs, and (c) subcutaneously implanted PC3 tumors. Four studies were performed. In all studies, drug treatment was administered intravenously via a tail vein, after the tumor was established. The first and second studies used the intravenous PC3-LN lung metastasis model. Briefly, human PC3-LN cells ([…] in 0.1 ml physiologic saline) were injected intravenously, via a tail vein, into immunodeficient mice. […] Treatment was given twice weekly for three weeks. […] The lung surface area (counted as number of pixel) occupied by the tumor was calculated as a fraction of the total lung area, using Adobe PhotoShop. The number of tumor cells in residual tumors and the fraction of apoptotic cells in each tumor were also determined microscopically. […] This was determined by counting the number of non-apoptotic tumor cells in randomly selected microscopic fields at 400× magnification. […] In the case of combination therapy where fewer than 5 tumor nodules remained per animal, all residual cells (between 20 to 600 cells per animal) were counted.

[10] = system: human prostate PC3-LN tumor cells; assay: cells; format: cell-based; settings: read-out: IC50 in the monolayer cultures of PC3-LN cells
[11] = system: subcutaneous PC3 tumors; settings: suramin 10 mg/kg, doxorubicin 5 mg/kg, twice weekly for 3 weeks
Experimental: Briefly, PC3 cells (5×10^6 cells) were injected subcutaneously.

[12] = system: rat MAT-LyLu tumor cells; assay: Intracellular drug accumulation with or without CM or r-bFGF; settings: unchanged with or without CM or r-bFGF; 10 nM paclitaxel, 100 nM doxorubicin, 500 nM 5-fluorouracil
[13] = system: rat MAT-LyLu tumor cells; assay: Reversal of CM-induced resistance by FGF antibodies and suramin, BrdU incorporation; format: cell-based; settings: Rattus norvegicus, read-out: IC50 in the presence of 1.6 micromolar suramin; CM of lung metastases histocultures; unchanged in the absence or presence of 5 microgram/ml anti-bFGF antibody
Experimental: The source of CM was lung histocultures for the aFGF experiment, and early monolayer lung cultures for the bFGF experiment. The study used four controls: no CM (left solid curves, open circles); addition of 5 μg/ml aFGF or bFGF antibody but no CM (inverted filled triangle, overlaps with the left control curve); addition of CM but no antibody (right solid curves, open square); addition of CM plus a nonspecific antibody, IgG (5 μg/ml, filled diamond, overlaps with the right CM-control curve). Dotted curves, from right to left, addition of aFGF or bFGF antibody concentrations of 0.05 μg/ml (filled circle); 0.1 μg/ml (filled square); 1 or 0.5 μg/ml (filled triangle); and 5 μg/ml (open inverted triangle). […] Similar results were also found for human PC3 prostate tumor cells.
The first study used specific inhibitors of extracellular aFGF and bFGF, i.e., monoclonal antibodies (FIG. 2A). […] In the presence of the active CM, the bFGF antibody produced a concentration-dependent reversal of the CM-induced chemoresistance, with complete reversal by 5 microgram/ml antibody, whereas a nonspecific antibody (i.e., non-immune rabbit IgG) had no effect. For aFGF, the antibody treatment partially reversed the CM-induced resistance; the maximum reversal was about 60% that was obtained with 1 microgram/ml antibody with no significant additional reversal at a 5-fold higher concentration. The second study evaluated the effect of removing aFGF and/or bFGF from the active CM by immunoprecipitation. Removal of bFGF abolished the resistance, whereas removal of aFGF only partially reversed the CM effect. These two studies indicate that both aFGF and bFGF were involved in the resistance, but had different roles.
This study was performed using the rat MAT-LyLu tumor cells as the model tumor cells and using doxorubicin and paclitaxel as the model anticancer agents. The CM used to induce resistance was collected from histocultures of lung metastases (see Table 1). Five microgram/ml anti-bFGF antibody was added.

[14] = Homo sapiens, read-out: IC50, Control (drug treatment only, without FGF treatment), No suramin, drug 96 hours
[15] = Homo sapiens, read-out: IC50, aFGF 0.3 ng/ml + bFGF 1 ng/ml, No suramin, FGF pretreatment 96 hours, drug 96 hours
[16] = Homo sapiens, read-out: IC50, aFGF 1 ng/ml + bFGF 3 ng/ml, No suramin, FGF pretreatment 96 hours, drug 96 hours
[17] = read-out: IC50, Control (without FGF treatment), Suramin, 15 μM, drug 96 hours with 15 μM suramin
[18] = read-out: IC50, aFGF 0.3 ng/ml + bFGF 1 ng/ml, With suramin, FGF pretreatment 96 hours, drug 96 hours with 15 micromolar suramin
[19] = read-out: IC50, aFGF 1 ng/ml + bFGF 3 ng/ml, With suramin, FGF pretreatment 96 hours, drug 96 hours with 15 micromolar suramin
[20] = doxorubicin study: suramin 10 mg/kg, doxorubicin 5 mg/kg, intravenous twice weekly for three weeks
[21] = suramin 10 mg/kg, doxorubicin 5 mg/kg, intravenous twice weekly for three weeks
[22] = IEC-6, absence of aFGF and bFGF
[23] = IEC-6, pretreated with 1 ng/ml aFGF and 3 ng/ml bFGF for 96 hours
[24] = 24 h, read-out: Concentration producing 50% inhibition (data shown are the concentrations that produced 30% inhibition)
[25] = paclitaxel study: suramin 10 mg/kg, paclitaxel 15 mg/kg, intravenous twice weekly for three weeks

Row | Compound | IC50 ([1]; Monolayers (passage 0)) | IC50 ([1]; Monolayers (passage 1)) | IC50 ([1]; Monolayers (passage 2)) | IC50 ([1]; Monolayers (passage 3)) | IC50 [2, 14] | IC50 [2, 15] | IC50 [2, 16] | Resistance, Folds, aFGF 0.3 ng/ml + bFGF 1 ng/ml [2] | Resistance, Folds, aFGF 1 ng/ml + bFGF 3 ng/ml [2] | IC50 [2, 17] | IC50 [2, 18] | IC50 [2, 19] | IC50 ([4]; Monolayers (passage 0)) | IC50 ([4]; Monolayers (passage 1)) | IC50 ([4]; Monolayers (passage 2)) | IC50 ([4]; Monolayers (passage 3)) | IC50 [7, 22] | IC50 [7, 23] | IC50 [10] | IC50 [13] | also measured
1 | O=c1[nH]cc(F)c(=O)[nH]1 [5-Fluorouracil] | 2840 ± 240 nM | 1520 ± 80 nM | 1200 ± 40 nM | 810 ± 40 nM | 2210 nM | 5050 nM | 12600 nM | 2.29 Folds | 5.71 Folds | 2390 nM | 2160 nM | 2140 nM | 790 ± 40 nM | 850 ± 30 nM | 790 ± 60 nM | 780 ± 40 nM |  |  |  |  | IC50 ([3]; Histocultures, Lung, 96 hours, read-out: Concentration producing 50% inhibition): 122000 ± 25000 nM
2 | COc1cccc2c1C(=O)c1c(O)c3c(c(O)c1C2=O)C[C@@](O)(C(=O)CO)C[C@@H]3O[C@H]1C[C@H](N)[C@H](O)[C@H](C)O1 [Doxorubicin] | 77 ± 2.9 nM | 31.7 ± 8.9 nM | 16.6 ± 1 nM | 8 ± 0.5 nM | 27.8 nM | 145 nM | 281 nM | 5.23 Folds | 10.11 Folds | 35.9 nM | 29.8 nM | 27.9 nM | 8 ± 0.5 nM | 8.6 ± 0.5 nM | 8 ± 0.4 nM | 8 ± 0.2 nM | 292 nM | 544 nM | 17 nM | 13 nM | IC50 ([5]; Histocultures, Lymph node, 96 hours, read-out: Concentration producing 50% inhibition): 165 ± 66 nM; reduction of tumor size ([6]; doxorubicin 5 mg/kg alone): ~80%; % Apoptotic cells per tumor [6, 20]: 29 ± 16 %; Density of nonapoptotic cells in residual tumors, cells/field [6, 20]: 77 ± 17 cells/field; % Lung surface area occupied by tumor [6, 21]: 2 ± 1 %; % Tumor-free animals [6, 21]: 0%; plateau intracellular concentration [8]: 40 pmol/10^6 cells; tumor-free animals [9]: 25%; effect on tumor growth [11]: reduced the tumor growth but did not cause tumor regression; plateau intracellular concentration [12]: 80 pmol/10^6 cells
3 | CC(=O)O[C@H]1C(=O)[C@@]2(C)[C@H]([C@H](OC(=O)c3ccccc3)[C@]3(O)C[C@H](OC(=O)[C@H](O)[C@@H](NC(=O)c4ccccc4)c4ccccc4)C(C)=C1C3(C)C)[C@]1(OC(C)=O)CO[C@@H]1C[C@@H]2O [Paclitaxel] | 92.4 ± 6.9 nM | 28.1 ± 0.7 nM | 21.5 ± 3.7 nM | 11.4 ± 0.7 nM | 2.16 nM | 6.53 nM | 12.1 nM | 3.02 Folds | 5.59 Folds | 2.13 nM | 1.88 nM | 2.01 nM | 10.7 ± 0.5 nM | 10.5 ± 0.5 nM | 10.3 ± 0.8 nM | 10 ± 0.2 nM | 491 nM | 1450 nM | 8 nM | 14 nM | IC30 (concentration producing 30% inhibition) [5, 24]: > 227 nM; increase of the fraction of apoptotic cells ([6]; paclitaxel 15 mg/kg alone): 13 fold; reduction of the density of nonapoptotic cells ([6]; paclitaxel 15 mg/kg alone): ~70%; % Apoptotic cells per tumor [6, 25]: 53 ± 24 %; Density of nonapoptotic cells in residual tumors, cells/field [6, 25]: 49 ± 35 cells/field; IC30 [3, 24]: > 1800 nM
